We go through 4 molecules from publication PMC7946228, “Discovery of novel candidates for anti-liposarcoma therapies by medium-scale high-throughput drug screening” (PLoS ONE, 2021).

Molecules are shown by their SMILES. Like-named read-outs stand apart in the source and are kept apart here.

In data set [1] the test system is liposarcoma cell lines. Briefly: Cell cycle analysis of non-apoptotic cells (propidium iodide). The class given is cell-based, human. The settings on record: growth arresting concentration, non-apoptotic fraction. The method, then:
Cells were treated with drugs at the concentrations corresponding to previously established growth arresting concentrations and collected between 17 and 72h. Time of collection was individual for every drug/cell line combination; cells were collected after the beginning of complete growth inhibition (based on the growth curves data) but only when first signs of morphological change or cell death were visible (estimated microscopically approximately every 2h). After methanol fixation, cells were barcoded with different combinations of Pacific Blue/Pacific Orange dyes (Thermo Fisher Scientific) for different drug treatments. After mixing, cells were incubated in the TUNEL reaction mix for 1h at 37°C, according to the manufacturer’s instructions (Roche, Germany), stained with Streptavidin-Cy5 conjugated Ab and digested with RNAse. Cells were counter-stained with propidium iodide and analyzed using LSR II Flow Cytometer (BD Biosciences, NJ, USA. The data were processed with FlowJo Version 7.6.5 (Tree Star, Ashland, USA). The gating strategy is presented in Fig 3A. Cy-5 positive cells (as compared to control sample) were calculated as apoptotic. Cell cycles of non-apoptotic cells were analyzed using the built in FlowJo Cell Cycle Analysis module. Three independent biological replicates were done for each cell line/drug combination with exception of FU-DDLS-1 and T1000 –for which we only had two replicates available.

The conditions of data set [2]: cited from earlier work.
Data set [3] has as its system liposarcoma cell lines. Briefly: Drug withdrawal, reversibility of growth arrest. The class given is cell-based, human. The following applies: for reversibility of growth inhibition after drug removal: 120h treatment at growth arresting concentration, then 72h without drug, except T778 with MLN9708. The method, then: The cellular proliferation rate was measured using the IncuCyte ZOOM live-cell imaging system (Essen Bioscience, Birmingham, UK) with the corresponding software application (version 2013BRev1). First the growth rate for each cell line was established to estimate the seeding numbers of cells corresponding to 15–30% of confluence at the start of the experiment and maximum 70% after 72h. The drug treatment was initiated approximately 18h after seeding. The proliferation rate was measured as cell confluence over time through the acquisition of photographs under phase contrast every third hour for the entire duration of the drug treatment. During the drug treatment, media were not changed, and cells were not split. The growth reducing drug concentration was defined as lowest drug concentration leading to significant decrease of cellular growth between 40 and 72h after start of treatment. To determine that concentration, plots were generated using IncuCyte software and differences in growth between 40 and 72h were calculated using least-square means with the ‘emmeans’ R package version 1.4.3 [25]. Growth arresting concentrations were defined as minimal drug concentration under which cell confluence between 96 and 120h increases by less than 3%. Though growth arrest occurred much earlier, these time points ensured that the growth arrest is a stable phenomenon. These growth arresting concentrations were used for drug withdrawal, apoptosis and cell cycle experiments. All the data were verified with the plots. The presented values correspond to median values from two (T449, all compounds) to five (all cell lines, triptolide) biological replicates.
An important prerequisite for clinical implementation of these compounds as treatment for liposarcoma is irreversibility of the induced growth inhibition. We thus assessed if the drugs were only transiently cytostatic, which is especially important in case of the compounds that seem to work mainly via cell cycle arrest (APO866, GSK2126458). Cells were treated with the compounds at growth arresting concentrations for 120h after which the compounds were removed and cell numbers were monitored for another 72h. […] To irreversibly arrest cell proliferation GSK2126458 had to be used at 10x higher concentrations (100x for GOT3) (S5 Fig). Those concentrations are above physiological ranges (see Table 2), and these effects should be accounted for assessing use of GSK2126458 in clinic.

The test system of data set [4] is cancer cells isolated from primary liposarcoma tumors. Kind of data set: Ex vivo cultures of patient-derived tumor cells, ATP viability 72h. The class given is cell-based, human. The following applies: 1 nM to 10 μM, patients 1-3. The method, then: 349 compounds from anti-cancer Selleck Chemical library were pre-aliquoted at five concentrations, increasing in 10-fold steps from 1 nM to 10 μM, in 384-well plates using an Echo Liquid Handler. Each plate also contained positive (benzethonium chloride, BzCl) and negative (DMSO only) controls. Additional drugs were added manually to the same plates at the same concentration range. Cells were seeded directly into the plates containing the drugs. After 72h viability was assessed through levels of ATP, with Cell Titer Glow assay (Promega, Wisconsin, United States) and luminescence quantified using a […]. Data from drug screens were analyzed with R version 3.4.0 (R_Core_Team, 2017) normalized to median positive (BzCl) and median negative (DMSO) controls using formula: (drug-BzCl)/(DMSO–BzCl), with total viability calculated as the area under the curve over all five drug concentrations, adjusted using qualitatively constrained quantile smoothing splines, R package ‘cobs’ version 1.3–3 [22]. The raw values of positive (BzCl) and median negative (DMSO) controls on each assay plate were aggregated and used to calculate z’-factors, as a measure of assay performance and data quality, with a z’-factor > 0.5 representing acceptable data. For two cases where the z’-factor was below 0.5, strictly standardized mean difference (SSMD) was additionally calculated, giving the population value (β) of SSMD -4 and -5, respectively, indicating good quality. Data visualization was done in R using ‘ComplexHeatmaps’ package version 1.20.0 [24]. The same assay was also used when assessing viability of non-tumor cells and tumor explants.
Explants of tumors from patients with liposarcoma were made using Tumor Dissociation Kit and gentleMACS Dissociator (both Miltenyi Biotec, Germany) according to the manufacturer’s instructions. […]
Next, we tested the selected candidate drugs on cancer cells isolated from primary liposarcoma tumors that were available during the study (Fig 5, bottom panel). […] Cell viability was assessed by measuring ATP after 72h. […]

Regarding `O=C(/C=C/c1cccnc1)NCCCCC1CCN(C(=O)c2ccccc2)CC1` [APO866], the “cell cycle phase in which cells are blocked” value (“cell cycle phase” below) in the data set with liposarcoma cell lines [1] is listed as “less specific arrest”. In addition, the “mean steady state serum concentration (Css)” value in data set [2] (24 patients with advanced solid malignancies) was 14 nM. Further, the “reversibility of growth inhibition after drug removal” value (from here on “reversibility of growth inhibition”) in the data set on liposarcoma cell lines [3] is listed as “irreversibly inhibited growth of all tested cell lines”. In addition, the “efficacy against primary tumor cells from liposarcoma patients” value (“efficacy against primary tumor cells” for short) in data set [4] is “most varied”.
Take `Cn1cc(CNCC2CCN(c3ncc(C(=O)NO)cn3)CC2)c2ccccc21` [JNJ-26481585]: the “cell cycle phase” value in the data set on liposarcoma cell lines [1] is “G1 and G2 phases”. The Cmax in data set [2] (dosing schedule recommended for phase II, patients with solid tumors) was 1.5 to 14 nM. Besides, the “reversibility of growth inhibition” value in the data set with liposarcoma cell lines [3] is “irreversibly inhibited growth of all tested cell lines”.
As to `CC(C)[C@]12O[C@H]1[C@@H]1O[C@]13[C@]1(O[C@H]1C[C@H]1C4=C(CC[C@@]13C)C(=O)OC4)[C@@H]2O` [Triptolide], the “cell cycle phase” value in the data set with liposarcoma cell lines [1] is listed as “S phase”. Also, in data set [2] (read-out: maximum therapeutic plasma concentration (Cmax), in humans), the Cmax was 150 to 400 nM. Further, the “reversibility of growth inhibition” value in the data set with liposarcoma cell lines [3] was “irreversibly inhibited growth of all tested cell lines”. The “efficacy against primary tumor cells” value in data set [4] is “most efficient for all the samples”.
Consider `COCCn1c2c([n+](Cc3cnccn3)c1C)C(=O)c1ccccc1C2=O` [YM155], for which the “cell cycle phase” value in the data set with liposarcoma cell lines [1] is on record as “less specific arrest”. Further, in data set [2] (phase I, maximum tolerated dose), the Css is reported as 17 nM. Further, the Cmax in data set [2] (read-out: clinically relevant concentration (Cmax or Css), values show Cmax or Css (italics), patients) was 17 nM. For the same molecule, the “reversibility of growth inhibition” value in the data set on liposarcoma cell lines [3] is “Some cell lines such as LPS141, T778 and SA-4 resumed growth”. For the same molecule, the “concentration needed for irreversible growth arrest relative to growth arresting concentration” value in the data set on liposarcoma cell lines [3] (cell lines that resumed growth, 100x for GOT3 with GSK2126458) turned out to be 10 x higher. Besides, the “efficacy against primary tumor cells” value in data set [4] is recorded as “good response”.
